Target: T1, DTX2 (Homo sapiens, UniProt Q86UW9)
T1 sequence (Q86UW9 1-622): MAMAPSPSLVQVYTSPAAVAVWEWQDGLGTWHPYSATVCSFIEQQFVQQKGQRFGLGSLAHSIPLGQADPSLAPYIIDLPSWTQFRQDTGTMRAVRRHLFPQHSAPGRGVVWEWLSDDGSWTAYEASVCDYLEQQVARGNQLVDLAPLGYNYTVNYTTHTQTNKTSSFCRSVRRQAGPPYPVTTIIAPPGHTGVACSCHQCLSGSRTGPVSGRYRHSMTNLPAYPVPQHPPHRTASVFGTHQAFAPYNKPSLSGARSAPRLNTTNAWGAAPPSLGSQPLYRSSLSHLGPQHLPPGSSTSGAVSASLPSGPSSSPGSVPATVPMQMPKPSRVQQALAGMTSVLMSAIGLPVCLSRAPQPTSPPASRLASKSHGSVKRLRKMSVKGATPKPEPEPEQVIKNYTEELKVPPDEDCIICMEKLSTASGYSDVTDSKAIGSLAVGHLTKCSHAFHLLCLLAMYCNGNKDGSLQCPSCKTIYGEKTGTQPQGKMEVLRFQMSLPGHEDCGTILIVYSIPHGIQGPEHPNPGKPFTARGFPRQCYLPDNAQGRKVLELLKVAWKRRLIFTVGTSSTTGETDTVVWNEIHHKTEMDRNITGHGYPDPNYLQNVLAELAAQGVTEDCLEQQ
Assay: ubiquitylation of OP-ADPr, ion exchange and intact mass spectrometry
Assay type: biochemical
Conditions: co-substrate purified E2~Ub conjugate; pH 7.4, 37 °C, 150 mM NaCl

## C#CCO[C@H]1O[C@H](COP(=O)(O)OP(=O)(O)OC[C@H]2O[C@@H](n3cnc4c(N)ncnc43)[C@H](O)[C@@H]2O)[C@@H](O)[C@H]1O [compound 8, OP-ADPr]
  ubiquitylation of OP-ADPr, ion exchange and intact mass spectrometry: We next coupled Ub to OP-ADPr using DTX2 to generate an ester-linked Ub-OP-ADPr

Source: publication PMC12132378 (bioRxiv, 2025)
